2 compounds from US12252524B2, “GIP/GLP1 co-agonist compounds” (Eli Lilly and Company, priority 2018, dated 2025) can be followed below.

Numbered stars: 1 amine (or outer) side, 2 acyl side, 3 side chain; on linkers, the order of the positions; unused ones are H or OH. Square brackets hold non-standard residues; d marks the D form. Side chains are listed from the residue outwards. Peptide text beside a SMILES is read from it. * marks the point of attachment. C20 diacid = O=C(O)CCCCCCCCCCCCCCCCCCC(=O)*; αMePhe(2-F) = C[C@](N)(Cc1ccccc1F)C(=O)O; γGlu = O=C(O)[C@H](CCC(=O)[*:2])N[*:1]; αMeL = CC(C)C[C@](C)(N)C(=O)O; AEEA = NCCOCCOCC(=O)O; Aib = CC(C)(N)C(=O)O

The target of assay [1] is T1, human Gcg receptor (Homo sapiens, UniProt P47871).
T1 construct: expressed in transfected cells; crude membranes
Briefly: [125I]-Glucagon binding (SPA), human Gcg receptor. A digest of the protocol:
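Cell pellets were lysed in hypotonic Tris buffer, pH 7.5, homogenized, and spun at low then high speed to give crude membranes. Ki was derived from the fitted IC50.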

For assay [2], the target named is human GLP-1 receptor (GLP-1R) (Homo sapiens, UniProt P43220). Description: cAMP pharmacological functional assay in presence of casein, hGLP-1R. It counts as cell-based.
Assay [3] deals with T2, gastric inhibitory peptide receptor (GIPR) (Homo sapiens, UniProt P48546).
T2 sequence (P48546 22-466): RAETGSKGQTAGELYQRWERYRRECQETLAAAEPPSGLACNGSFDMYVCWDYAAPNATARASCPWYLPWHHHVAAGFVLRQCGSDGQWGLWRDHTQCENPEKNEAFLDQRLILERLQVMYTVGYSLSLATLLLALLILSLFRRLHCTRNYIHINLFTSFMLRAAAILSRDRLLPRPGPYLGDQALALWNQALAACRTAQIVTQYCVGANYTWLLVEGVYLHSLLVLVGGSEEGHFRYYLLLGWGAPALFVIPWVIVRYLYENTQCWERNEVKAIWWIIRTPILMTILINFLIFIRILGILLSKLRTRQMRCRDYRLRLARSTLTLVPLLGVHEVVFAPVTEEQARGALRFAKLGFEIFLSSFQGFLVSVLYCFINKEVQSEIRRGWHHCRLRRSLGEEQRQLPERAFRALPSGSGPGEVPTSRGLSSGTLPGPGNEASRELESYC
Description: cAMP pharmacological functional assay in presence of casein, hGIPR. It counts as cell-based.

The target in assay [4] is T3, human GLP-1R (Homo sapiens, UniProt P43220). Briefly: GLP-1R CHO cell β-arrestin recruitment assay. The class given is cell-based. Further details: host or cells: CHO-K1 PathHunter cells, assay-ready frozen. A digest of the protocol:
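PathHunter CHO-K1 cells with ProLink-tagged human GLP-1R and enzyme-acceptor-tagged β-arrestin-2 treated with serially diluted peptides in assay buffer containing 0.1% hydrolyzed casein, 90 min at 37 °C.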
On the technique in general: Activated receptors often draw arrestin, which recruitment assays turn into a signal.

The target in assay [5] is T3, human GLP-1R. Briefly: GLP-1R HEK293 cell membrane [35S]GTPγS binding assay. The class given is biochemical. More on the design: expressed in transfected cells; host or cells: HEK293 cells expressing human GLP-1R; membranes. A digest of the protocol: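 Membranes from HEK293 cells expressing the receptor incubated with peptide and […] [35S]GTPγS in HEPES pH 7.4 buffer with NaCl, MgCl2, saponin and BSA, 30 min at room temperature. Gαs-bound label captured by anti-Gαs antibody/SPA beads and counted; EC50 from four-parameter logistic fit.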
Background: Binding of GTPγS marks nucleotide exchange on a G protein.

T3 sequence (P43220 24-463): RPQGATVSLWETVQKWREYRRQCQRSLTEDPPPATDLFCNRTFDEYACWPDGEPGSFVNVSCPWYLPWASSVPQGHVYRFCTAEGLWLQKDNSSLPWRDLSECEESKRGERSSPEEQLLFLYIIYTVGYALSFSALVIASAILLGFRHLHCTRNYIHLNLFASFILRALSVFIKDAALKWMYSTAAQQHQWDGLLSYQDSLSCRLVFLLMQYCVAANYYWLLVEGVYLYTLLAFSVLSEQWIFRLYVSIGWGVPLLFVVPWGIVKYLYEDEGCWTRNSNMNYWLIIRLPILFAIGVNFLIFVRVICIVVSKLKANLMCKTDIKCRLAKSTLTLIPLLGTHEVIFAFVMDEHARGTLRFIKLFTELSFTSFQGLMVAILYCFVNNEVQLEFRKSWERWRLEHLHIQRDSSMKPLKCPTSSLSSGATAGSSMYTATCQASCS
human GLP-1 receptor (GLP-1R), sequence (P43220 24-463): as above
T1 sequence (P47871 26-477): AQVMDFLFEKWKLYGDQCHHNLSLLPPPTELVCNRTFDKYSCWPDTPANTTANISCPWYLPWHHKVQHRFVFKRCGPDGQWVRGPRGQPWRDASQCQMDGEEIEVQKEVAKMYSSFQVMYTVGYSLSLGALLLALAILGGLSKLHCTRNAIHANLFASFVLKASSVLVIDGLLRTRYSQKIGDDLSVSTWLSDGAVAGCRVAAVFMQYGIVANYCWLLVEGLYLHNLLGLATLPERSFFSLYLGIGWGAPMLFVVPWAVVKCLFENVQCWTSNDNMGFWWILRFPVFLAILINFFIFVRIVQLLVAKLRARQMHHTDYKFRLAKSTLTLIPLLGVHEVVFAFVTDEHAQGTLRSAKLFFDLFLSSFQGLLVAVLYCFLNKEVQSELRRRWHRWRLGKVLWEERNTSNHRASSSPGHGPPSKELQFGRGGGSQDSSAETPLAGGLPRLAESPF

As for `CC[C@H](C)[C@H](NC(=O)[C@H](CC(C)C)NC(=O)[C@H](Cc1ccc(O)cc1)NC(=O)[C@@H](CCC(=O)O)NC(=O)[C@@H](NC(=O)[C@H](Cc1ccccc1)NC(=O)[C@H](CCC(=O)O)NC(=O)C(C)(C)NC(=O)[C@H](CCC(N)=O)NC(=O)[C@H](C)NC(=O)[C@H](CCCCNC(=O)COCCOCCNC(=O)COCCOCCNC(=O)CC[C@H](NC(=O)CCCCCCCCCCCCCCCCCCC(=O)O)C(=O)O)NC(=O)[C@H](CCC(=O)O)NC(=O)[C@H](CC(=O)O)NC(=O)[C@H](CC(C)C)NC(=O)[C@](C)(CC(C)C)NC(=O)[C@@H](NC(=O)[C@H](CO)NC(=O)[C@H](Cc1ccc(O)cc1)NC(=O)[C@H](CC(=O)O)NC(=O)[C@H](CO)NC(=O)[C@@H](NC(=O)[C@](C)(Cc1ccccc1F)NC(=O)[C@@H](NC(=O)CNC(=O)[C@H](CCC(=O)O)NC(=O)C(C)(C)NC(=O)[C@@H](N)Cc1ccc(O)cc1)[C@@H](C)O)[C@@H](C)O)[C@@H](C)CC)[C@@H](C)CC)C(=O)N[C@@H](CCC(=O)O)C(=O)NCC(=O)NCC(=O)N1CCC[C@H]1C(=O)N[C@@H](CO)C(=O)N[C@@H](CO)C(=O)NCC(=O)N[C@@H](C)C(=O)N1CCC[C@H]1C(=O)N1CCC[C@H]1C(=O)N1CCC[C@H]1C(=O)N[C@@H](CO)C(N)=O` [Example 1] (H-Y[Aib]EGT[αMePhe(2-F)]TSDYSI[αMeL]LDEK([AEEA-AEEA-γGlu-C20 diacid])AQ[Aib]EFI[dE]YLIEGGPSSGAPPPS-NH2), the affinity in assay [1] corresponds to a Ki of 207 nM. In addition, the 50% effective concentration (EC50) (commonly the concentration needed to bring the measured effect to its halfway point) in assay [2] is 0.041 nM; in assay [3] it was 0.0356 nM; in assay [4] it was 5 nM; in assay [5], 0.235 nM. The “hGLP1R B-Arrestin2 % Top” value in assay [4] (normalized to GLP-1 maximum control) is 105%.

With `CC[C@H](C)[C@H](NC(=O)[C@H](CC(C)C)NC(=O)[C@H](Cc1ccc(O)cc1)NC(=O)[C@@H](CCC(=O)O)NC(=O)[C@@H](NC(=O)[C@H](Cc1ccccc1)NC(=O)[C@H](CCC(=O)O)NC(=O)C(C)(C)NC(=O)[C@H](CCC(N)=O)NC(=O)[C@H](C)NC(=O)[C@H](CCCCNC(=O)COCCOCCNC(=O)COCCOCCNC(=O)CC[C@H](NC(=O)CCCCCCCCCCCCCCCCCCC(=O)O)C(=O)O)NC(=O)[C@H](CCCN)NC(=O)[C@H](CC(=O)O)NC(=O)[C@H](CC(C)C)NC(=O)[C@](C)(CC(C)C)NC(=O)[C@@H](NC(=O)[C@H](CO)NC(=O)[C@H](Cc1ccc(O)cc1)NC(=O)[C@H](CC(=O)O)NC(=O)[C@H](CO)NC(=O)[C@@H](NC(=O)[C@](C)(Cc1ccccc1F)NC(=O)[C@@H](NC(=O)CNC(=O)[C@H](CCC(=O)O)NC(=O)C(C)(C)NC(=O)[C@@H](N)Cc1ccc(O)cc1)[C@@H](C)O)[C@@H](C)O)[C@@H](C)CC)[C@@H](C)CC)C(=O)N[C@@H](CCC(=O)O)C(=O)NCC(=O)NCC(=O)N1CCC[C@H]1C(=O)N[C@@H](CO)C(=O)N[C@@H](CO)C(=O)NCC(=O)N[C@@H](C)C(=O)N1CCC[C@H]1C(=O)N1CCC[C@H]1C(=O)N1CCC[C@H]1C(=O)N[C@@H](CO)C(N)=O` [Example 3], the affinity in assay [1], expressed as Ki, was 242 nM. The EC50 in assay [2] is 0.0338 nM; in assay [3] it was 0.0411 nM; in assay [5], 0.421 nM.
